Calls of active or inactive are those of the source. No rule for the calls is given here.
Test system: MRP1 cells, doxorubicin viability shift, 10 uM compound
Assay: doxorubicin EC50 increase in MRP-1 cells, dose response, cell-based, doxorubicin EC50 shift (AID 844)
Conditions: for EC50: measured here: doxorubicin EC50 with compound

| Compound | fold increase in Dox EC50 | EC50 |
| --- | --- | --- |
| Cc1ccc(NC(=O)CCC(=O)N/N=C/c2cccs2)cc1C | 0.97 (inactive) | 5.23 µM |
| COc1ccc(N2CCN(c3oc(COc4ccc(Cl)cc4)nc3C#N)CC2)cc1 | 1.64 | 8.88 µM |
| O=C(Nc1ccn(Cc2ccccc2F)n1)c1ccc(COc2cc(Cl)ccc2Cl)o1 | 0.91 (inactive) | 4.94 µM |
| COC(=O)C(CC(C)C)NC(=O)CSc1nc(-c2ccccc2)c(C#N)c(=O)[nH]1 (stereo not given) | 1.85 | 10 µM |
| CCc1nnc(NC(=O)C(C)N2C(=O)C3C4C=CC(C4)C3C2=O)s1 (stereo not given) | 1.01 (inactive) | 5.44 µM |
| CCc1ccc(C2CC(c3ccccc3C)n3nc(N)nc3N2)cc1 (stereo not given) | 0.57 (inactive) | 3.07 µM |
| Clc1ccc(CSc2ncn[nH]2)cc1 | 1.03 (inactive) | 5.54 µM |
| Cn1cc(Br)c(C(=O)NNC(=O)c2ccc(Cl)cc2)n1 | 1.23 (inactive) | 6.63 µM |
| CCc1nn2c(N)c(/C=C3\C=Nc4ccccc43)c(=O)nc2s1 | 1.43 (inactive) | 7.74 µM |
| COc1ccc(Nc2nnc(Cc3ccc(Cl)cc3)c(=O)[nH]2)c(OC)c1 | 0.91 (inactive) | 4.93 µM |
| CC(CCc1ccccc1)NC(=O)C1CCN(C(=O)c2sccc2-n2cccc2)CC1 (stereo not given) | 0.28 (inactive) | 1.51 µM |
| O=C(Nc1nc(-c2ccccc2)cs1)c1ccc(Br)o1 | 1.41 (inactive) | 7.64 µM |
| COc1ccccc1-c1nnc(SC2CCc3ccccc3NC2=O)s1 (stereo not given) | 0.55 (inactive) | 2.98 µM |
| CCOC(=O)c1csc(NC(=O)c2ccccc2)n1 | 0.86 (inactive) | 4.65 µM |
| O=C(NC1CCCC1)C(c1c[nH]c2ccccc12)N(C(=O)Cn1nnc(-c2ccc(Cl)cc2)n1)c1ccccc1 (stereo not given) | 0.99 (inactive) | 5.35 µM |
| COc1ccc(N2Cc3cccc(C(=O)NC(C)CCc4ccco4)c3C2=O)cc1 (stereo not given) | 0.37 (inactive) | 2.02 µM |
| COc1ccc(-n2c(SCC(=O)Nc3ccccc3)nc3c(c2=O)SCC3)cc1 | 0.22 (inactive) | 1.18 µM |
| CCOC(=O)C1=C(C)Nc2sc(C(=O)c3ccc(C)cc3)c(N)c2C1c1ccc(C(=O)OC)cc1 (stereo not given) | 0.36 (inactive) | 1.96 µM |
| N#Cc1c(-c2ccccc2)nc(SCC(=O)Nc2ccccc2F)[nH]c1=O | 1.79 | 9.66 µM |
| COc1ccc(C(=O)NCc2ccccc2)cc1S(=O)(=O)N1CCCc2ccccc21 | 0.56 (inactive) | 3.02 µM |
| CCOC(=O)c1cc(-c2ccccc2)sc1NC(=O)C(C)Sc1nnc(N)s1 (stereo not given) | 0.73 (inactive) | 3.92 µM |
| Cc1cccc(Nc2nnc(SCC(=O)Nc3cccnc3Cl)s2)c1 | 0.61 (inactive) | 3.3 µM |
| CCC(=O)N1CCN=C1SCc1ccc(F)cc1 | 0.75 (inactive) | 4.07 µM |
| Cc1nc(=O)c(-c2ccccc2)c(C)n1-c1ccc(O)cc1 | 1.32 (inactive) | 7.13 µM |
| O=C1Nc2ccccc2CCC1Sc1nnc(-c2ccc(Cl)cc2)s1 (stereo not given) | 1.32 (inactive) | 7.13 µM |
| Cc1ccc(Nc2nc(CSc3nnnn3C)cs2)cc1 | 1.18 (inactive) | 6.36 µM |
| COc1ccc(Cn2c(O)c(C=Nc3ccc(OC)cc3)c3ccccc3c2=O)cc1 | 1.34 (inactive) | 7.24 µM |
| CCC1(C)Cc2c(sc3nnn(CC(=O)Nc4ccc(Cl)cc4)c(=O)c23)CO1 (stereo not given) | 0.2 (inactive) | 1.09 µM |

| Compound | fold increase in Dox EC50 | EC50 |
| --- | --- | --- |
| C=CCNC(=O)c1ccccc1NC(=O)c1ccc(Cl)c(S(=O)(=O)Nc2cccc(C)c2C)c1 | 0.36 (inactive) | 1.96 µM |
| Clc1ccc(OCc2nnnn2-c2ccccc2)cc1 | 0.96 (inactive) | 5.21 µM |
| CC(=O)N1CCN=C1SCc1ccc(C)cc1 | 0.87 (inactive) | 4.67 µM |
| O=C(N/N=C/c1ccccn1)c1cc(-c2ccc3ccccc3c2)n[nH]1 | 0.75 (inactive) | 4.04 µM |
| Cc1ccc(CC2SC(=Nc3ccccc3)N(c3ccccc3)C2=O)cc1 (stereo not given) | 1.69 | 9.1 µM |
| Cc1nnc(NC(=O)C(C)Oc2ccc3c(C)cc(=O)oc3c2)s1 (stereo not given) | 1.29 (inactive) | 6.99 µM |
| CN=c1scc(C)n1/N=C/c1ccc(O)c(O)c1O | 0.92 (inactive) | 4.95 µM |
| Cc1ccc(C(=O)Nc2nnc(C)s2)o1 | 1.32 (inactive) | 7.14 µM |
| O=C1NC(=Nc2ccc(Cl)cc2)SC1Cc1cccc(Cl)c1Cl (stereo not given) | 1.19 (inactive) | 6.41 µM |
| O=C(Cn1c(=O)oc2cc(S(=O)(=O)N3CCCC3)ccc21)NCc1ccccn1 | 1.15 (inactive) | 6.19 µM |
| N#CCCNC(=O)Cn1c(COc2ccc(Cl)cc2)nc2ccccc21 | 0.85 (inactive) | 4.57 µM |
| O=C(Nc1nc(COc2ccccc2)cs1)c1ccccc1F | 1.76 | 9.49 µM |
| Cc1noc(/C=C/N(C)C)c1S(=O)(=O)N1CCCC(C(=O)NCc2ccc(F)cc2)C1 (stereo not given) | 1.15 (inactive) | 6.2 µM |
| CC1=C(C(=O)OC(C)C)C(c2cccc(F)c2)N2C(=O)C(C)SC2=N1 (stereo not given) | 1.21 (inactive) | 6.53 µM |
| Cn1nc(C(F)(F)F)c2cc(NC(=O)OCc3ccc(C(C)(C)C)cc3)sc21 | 0.74 (inactive) | 4.02 µM |
| CCC(Sc1nccn1C)C(=O)Nc1nnc(C)s1 (stereo not given) | 1.01 (inactive) | 5.43 µM |
| O=C(NC(=S)Nc1ccccc1N1CCCCC1)c1ccc(-c2cccc([N+](=O)[O-])c2)o1 | 1.3 (inactive) | 7.02 µM |
| CC1=C(C(=O)Nc2ccccc2)C(c2ccc(C)o2)N2C(=O)CSC2=N1 (stereo not given) | 0.84 (inactive) | 4.55 µM |
| CCCCCCn1c(O)c(/C=C2\C=NN=C2c2ccccc2)sc1=S | 0.77 (inactive) | 4.16 µM |
| O=C(CSCc1ccc(Cl)cc1)NCC1CCCO1 (stereo not given) | 1.1 (inactive) | 5.96 µM |
| CCN(CC)CCN(Cc1cc2cc(C)cc(C)c2[nH]c1=O)C(=S)NCc1ccco1 | 0.19 (inactive) | 1.03 µM |
| O=c1cc(CNc2ccc(Br)cc2)nc2sccn12 | 0.99 (inactive) | 5.37 µM |
| CCCCCCCC1CC(CSc2ncn[nH]2)OC1=O (stereo not given) | 0.94 (inactive) | 5.08 µM |
| N#C/C(=N\Nc1ccccc1F)C(=N)N1CCCCC1 | 0.79 (inactive) | 4.26 µM |
| CCCNC(=O)c1oc2ccc3c(c2c1C)C(=O)CC(C)(C)O3 | 0.84 (inactive) | 4.55 µM |
| O=c1[nH]c(C2CCCN(S(=O)(=O)c3ccccc3)C2)nc2c1nnn2Cc1ccccc1 (stereo not given) | 0.11 (inactive) | 0.603 µM |
| CNC(=O)CSc1nnc(COc2ccc(Cl)cc2)n1CCOC | 1.29 (inactive) | 6.95 µM |
